Source: article PMC10539329, “NLRP6 potentiates PI3K/AKT signalling by promoting autophagic degradation of p85α to drive tumorigenesis” (Nature Communications, 2023)

Key:
[1] = system: NLRP6/p85α interaction; assay: Competitive ELISA, NLRP6 binding to p85α; assay type: biochemical; details: 10 μM peptide (PepC +, Pep9 ++), 1 h
Experimental: (§1) DNA encoding full-length NLRP6 was codon optimized and chemically synthesized by Genewiz (Soochow, China). The DNA sequence was subcloned into NdeI-XhoI sites of a pDB-His-MBP vector (kindly given by Pro. Chenggui Han, China Agricultural University, Beijing, China). Recombinant NLRP6 protein was expressed and purified following previous reports, with slight modifications. Briefly, the protein was expressed in E. coli (DE3) at 16 °C with 0.5 mM IPTG induction overnight. Then, the protein was purified by Ni affinity and gel filtration chromatography. The p85α WT and p85α mutant sequences were chemically synthesized and subcloned into BamHI-XhoI sites of a pGEX-6P-1 plasmid by GenScript (Nanjing, China). The E. coli (DE3) transformed with the plasmids were grown in LB medium at 37 °C. The culture medium was supplemented with 0.5 mM IPTG followed by incubation at 16 °C for 16–18 h. The proteins were purified by glutathione-affinity chromatography (Smart-Life Sciences, Changzhou, China) followed by gel filtration chromatography (Cytiva, MA, USA) using PBS. The protein extinction coefficient was calculated by ProtParam, and the protein concentration was determined by the ultraviolet spectrophotometry method.
The 96-well plate was coated with bovine serum albumin (BSA) or purified NLRP6. HRP-conjugated PepC or HRP-conjugated Pep9 was incubated with BSA or NLRP6 for 1 h, and the unbound peptide was washed away. The HRP substrate was added, and the absorbance was detected at 450 nm. For the competitive ELISA, the 96-well plate was coated with purified p85α. The binding of NLRP6 to p85α competed with 10 μM PepC or 5 μM, 10 μM, 20 μM Pep9 for 1 h.

[2] = target: T1, recombinant NLRP6 (Homo sapiens, UniProt P59044); assay: Biolayer interferometry (BLI) binding of peptides to recombinant NLRP6; details: 30 °C, PBS with 0.01% Tween-20
T1 construct: DNA encoding full-length NLRP6 was codon optimized; His (N); MBP (N); made in house; host or cells: E. coli (DE3)
T1 sequence (P59044 1-892): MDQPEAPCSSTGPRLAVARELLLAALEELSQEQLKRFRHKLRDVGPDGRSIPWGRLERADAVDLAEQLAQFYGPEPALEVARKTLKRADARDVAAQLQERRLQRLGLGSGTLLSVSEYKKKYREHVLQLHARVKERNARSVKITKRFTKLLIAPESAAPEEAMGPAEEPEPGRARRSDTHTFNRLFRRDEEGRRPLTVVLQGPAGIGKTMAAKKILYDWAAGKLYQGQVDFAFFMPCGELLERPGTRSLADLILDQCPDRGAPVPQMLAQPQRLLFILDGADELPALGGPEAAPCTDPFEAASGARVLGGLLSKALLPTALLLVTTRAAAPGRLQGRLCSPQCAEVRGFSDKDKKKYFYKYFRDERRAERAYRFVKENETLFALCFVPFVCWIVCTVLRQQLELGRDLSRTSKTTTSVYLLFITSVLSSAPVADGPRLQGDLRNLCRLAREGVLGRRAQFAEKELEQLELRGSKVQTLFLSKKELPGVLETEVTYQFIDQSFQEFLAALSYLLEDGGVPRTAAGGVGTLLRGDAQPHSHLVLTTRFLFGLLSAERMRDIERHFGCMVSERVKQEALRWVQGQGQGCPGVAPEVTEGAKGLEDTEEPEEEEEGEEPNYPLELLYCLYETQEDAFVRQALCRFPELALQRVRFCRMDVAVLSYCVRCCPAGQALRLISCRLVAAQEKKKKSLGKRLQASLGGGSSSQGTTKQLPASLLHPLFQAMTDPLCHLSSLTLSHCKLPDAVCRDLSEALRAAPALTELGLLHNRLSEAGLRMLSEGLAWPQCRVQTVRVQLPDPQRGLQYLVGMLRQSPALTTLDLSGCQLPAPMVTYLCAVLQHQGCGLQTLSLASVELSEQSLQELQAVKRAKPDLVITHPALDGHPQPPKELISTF
Experimental: as §1, with “The proteins were purified by glutathione-affinity chromatography (Smart-Life Sciences, Changzhou, China) followed by gel filtration chromatography (Cytiva, MA, USA) using PBS.” left out
Eleven α-helical peptides were synthesized (Supplementary Data 7). […] The interaction between the peptides and NLRP6 was determined by BLI using an Octet Red 96 instrument (FortéBio, CA, USA). […] Responses (nanometre shift) were calculated using data that were double reference subtracted using reference wells and nonspecific binding of the biosensor to the analyte. […]

“SAEGYQYRALYD [Pep1, peptide found on the p85α SH3 domain; selected as the control named PepC]” was tested, and the “ELISA value (NLRP6 binding to p85α)” value ([1]; replicate 1, no peptide 2.20) was 1.90, the “ELISA value (NLRP6 binding to p85α)” value ([1]; replicate 2, no peptide 2.10) was 2.05 and the “ELISA value (NLRP6 binding to p85α)” value ([1]; replicate 3, no peptide 2.45) was 1.80. For the same sequence, the “binding to NLRP6 (in words)” value [2] was “did not interact with NLRP6”.
